Laboratory results: patent publication US10442807B2, “Aryl substituted bicyclic compounds as herbicides” (FMC Corporation, priority 2015, dated 2019)

Tests used:
Type in all cases: in vivo
[1] = test system: foxtail, giant (giant foxtail, Setaria faberii); test: Test A postemergence application, visual injury rating; conditions: approx. 10 d, 0 = no effect, 100 = complete control
Text: (§1) Seeds of plant species selected from barnyardgrass (Echinochloa crus-galli), kochia (Kochia scoparia), ragweed (common ragweed, Ambrosia elation), ryegrass, Italian (Italian ryegrass, Lolium multiflorum), foxtail, giant (giant foxtail, Setaria faberii), and pigweed (Amaranthus retroflexus), were planted into a blend of loam soil and sand and treated preemergence with a directed soil spray using test chemicals formulated in a non-phytotoxic solvent mixture which included a surfactant. At the same time, plants selected from these weed species and also blackgrass (Alopecurus myosuroides), galium (catchweed bedstraw, Galium aparine), wheat (Triticum aestivum), and corn (Zea mays) were planted in pots containing the same blend of loam soil and sand and treated with postemergence applications of test chemicals formulated in the same manner. Plants ranged in height from 2 to 10 cm and were in the one- to two-leaf stage for the postemergence treatment. Treated plants and untreated controls were maintained in a greenhouse for approximately 10 d, after which time all treated plants were compared to untreated controls and visually evaluated for injury. Plant response ratings, summarized in Table A, are based on a 0 to 100 scale where 0 is no effect and 100 is complete control. A dash (-) response means no test result.

[2] = test system: galium (catchweed bedstraw, Galium aparine); test: as above; conditions: approx. 10 d, 0 = no effect, 100 = complete control
Text: as §1

kochia (Kochia scoparia) [3] = test: as above; conditions: approx. 10 d, 0 = no effect, 100 = complete control
Text: as §1

[4] = test system: pigweed (Amaranthus retroflexus); test: as above; conditions: approx. 10 d, 0 = no effect, 100 = complete control
Text: as §1

[5] = test system: blackgrass (Alopecurus myosuroides); test: as above; conditions: approx. 10 d, 0 = no effect, 100 = complete control
Text: as §1

[6] = test system: barnyardgrass (Echinochloa crus-galli); test: as above; conditions: approx. 10 d, 0 = no effect, 100 = complete control
Text: as §1

[7] = test system: ryegrass, Italian (Italian ryegrass, Lolium multiflorum); test: as above; conditions: approx. 10 d, 0 = no effect, 100 = complete control
Text: as §1

[8] = test system: wheat (Triticum aestivum); test: as above; conditions: approx. 10 d, 0 = no effect, 100 = complete control
Text: as §1

corn (Zea mays) = test: as above; conditions: approx. 10 d, 0 = no effect, 100 = complete control
Text: as §1

[9] = test system: ragweed (common ragweed, Ambrosia elation); test: as above; conditions: approx. 10 d, 0 = no effect, 100 = complete control
Text: as §1

rice (Oryza sativa) = test: Test B flooded paddy test, visual plant response rating; conditions: applied to paddy water at 2-leaf stage, rated after 13 to 15 days, scale 0 to 100, 0 is no effect, 100 is complete control
Text: (§2) At time of treatment, test pots were flooded to 3 cm above the soil surface, treated by application of test compounds directly to the paddy water, and then maintained at that water depth for the duration of the test. Treated plants and controls were maintained in a greenhouse for 13 to 15 days, after which time all species were compared to controls and visually evaluated. Plant response ratings, summarized in Table B, are based on a scale of 0 to 100 where 0 is no effect and 100 is complete control. A dash (-) response means no test result.

[10] = test system: ducksalad (Heteranthera limosa); test: as above; conditions: applied to paddy water at 2-leaf stage, rated after 13 to 15 days, scale 0 to 100, 0 is no effect, 100 is complete control
Text: as §2

[11] = test system: sedge, umbrella (small-flower umbrella sedge, Cyperus difformis); test: as above; conditions: applied to paddy water at 2-leaf stage, rated after 13 to 15 days, scale 0 to 100, 0 is no effect, 100 is complete control
Text: as §2

[12] = test system: barnyardgrass (Echinochloa crus-galli); test: as above; conditions: applied to paddy water at 2-leaf stage, rated after 13 to 15 days, scale 0 to 100, 0 is no effect, 100 is complete control
Text: as §2

[13] = test system: foxtail, giant (giant foxtail, Setaria faberii); test: Test A preemergence, directed soil spray, visual injury rating; conditions: approx. 10 d, 0 = no effect, 100 = complete control
Text: as §1

kochia (Kochia scoparia) [14] = test: as above; conditions: approx. 10 d, 0 = no effect, 100 = complete control
Text: as §1

[15] = test system: pigweed (Amaranthus retroflexus); test: as above; conditions: approx. 10 d, 0 = no effect, 100 = complete control
Text: as §1

[16] = test system: barnyardgrass (Echinochloa crus-galli); test: as above; conditions: approx. 10 d, 0 = no effect, 100 = complete control
Text: as §1

[17] = test system: ryegrass, Italian (Italian ryegrass, Lolium multiflorum); test: as above; conditions: approx. 10 d, 0 = no effect, 100 = complete control
Text: as §1

[18] = test system: ragweed (common ragweed, Ambrosia elation); test: as above; conditions: approx. 10 d, 0 = no effect, 100 = complete control
Text: as §1

Compound | Foxtail, Giant plant response rating (0 to 100 scale) ([1]; 125 g ai/ha) | Foxtail, Giant plant response rating (0 to 100 scale) ([1]; 500 g ai/ha) | Galium plant response rating (0 to 100 scale) ([2]; 125 g ai/ha) | Galium plant response rating (0 to 100 scale) ([2]; 500 g ai/ha) | Kochia plant response rating (0 to 100 scale) (kochia (Kochia scoparia) [3]; 125 g ai/ha) | Kochia plant response rating (0 to 100 scale) (kochia (Kochia scoparia) [3]; 500 g ai/ha) | Pigweed plant response rating (0 to 100 scale) ([4]; 125 g ai/ha) | Pigweed plant response rating (0 to 100 scale) ([4]; 500 g ai/ha) | Blackgrass plant response rating (0 to 100 scale) ([5]; 125 g ai/ha) | Blackgrass plant response rating (0 to 100 scale) ([5]; 500 g ai/ha) | Barnyardgrass plant response rating (0 to 100 scale) ([6]; 125 g ai/ha) | Barnyardgrass plant response rating (0 to 100 scale) ([6]; 500 g ai/ha) | Ryegrass, Italian plant response rating (0 to 100 scale) ([7]; 125 g ai/ha) | Ryegrass, Italian plant response rating (0 to 100 scale) ([7]; 500 g ai/ha) | Wheat plant response rating (0 to 100 scale) ([8]; 125 g ai/ha) | Wheat plant response rating (0 to 100 scale) ([8]; 500 g ai/ha) | Corn plant response rating (0 to 100 scale) (corn (Zea mays); 125 g ai/ha) | Corn plant response rating (0 to 100 scale) (corn (Zea mays); 500 g ai/ha) | Ragweed plant response rating (0 to 100 scale) ([9]; 125 g ai/ha) | Ragweed plant response rating (0 to 100 scale) ([9]; 500 g ai/ha) | also measured
CCc1ccc(C2Cn3c(C)nnc3C2C(=O)Nc2cccc(F)c2F)cc1 (stereo not drawn) [Compound 23] | 30 | 70 | 0 | 30 | 30 | 30 | 0 | 0 | 0 | 20 | 50 | 90 | 0 | 0 | 0 | 0 | 0 | 20 | 0 | 0 | Plant response rating, Flood, Rice (rice (Oryza sativa); 250 g ai/ha): 0; Plant response rating, Flood, Ducksalad ([10]; 250 g ai/ha): 80; Plant response rating, Flood, Sedge, Umbrella ([11]; 250 g ai/ha): 0; Plant response rating, Flood, Barnyardgrass ([12]; 250 g ai/ha): 0; Foxtail, Giant plant response rating (0 to 100 scale) ([13]; 125 g ai/ha): 70; Foxtail, Giant plant response rating (0 to 100 scale) ([13]; 500 g ai/ha): 90; Kochia plant response rating (0 to 100 scale) (kochia (Kochia scoparia) [14]; 125 g ai/ha): 20; Kochia plant response rating (0 to 100 scale) (kochia (Kochia scoparia) [14]; 500 g ai/ha): 40; Pigweed plant response rating (0 to 100 scale) ([15]; 125 g ai/ha): 0; Pigweed plant response rating (0 to 100 scale) ([15]; 500 g ai/ha): 20; Barnyardgrass plant response rating (0 to 100 scale) ([16]; 125 g ai/ha): 60; Barnyardgrass plant response rating (0 to 100 scale) ([16]; 500 g ai/ha): 90; Ryegrass, Italian plant response rating (0 to 100 scale) ([17]; 125 g ai/ha): 0; Ryegrass, Italian plant response rating (0 to 100 scale) ([17]; 500 g ai/ha): 0; Ragweed plant response rating (0 to 100 scale) ([18]; 125 g ai/ha): 0; Ragweed plant response rating (0 to 100 scale) ([18]; 500 g ai/ha): 0
O=C(Nc1ccccc1F)C1c2nccn2CC1c1cccc(C(F)(F)F)c1 (stereo not drawn) [Compound 4] | 20 | 70 | 0 | 0 | 0 | 0 | 0 | 0 | 20 | 40 | 20 | 60 | 0 | 0 | 0 | 20 | 0 | 0 | 0 | 0 | Plant response rating, Flood, Rice (rice (Oryza sativa); 500 g ai/ha): 0; Plant response rating, Flood, Ducksalad ([10]; 500 g ai/ha): 0; Plant response rating, Flood, Sedge, Umbrella ([11]; 500 g ai/ha): 0; Plant response rating, Flood, Barnyardgrass ([12]; 500 g ai/ha): 0; Foxtail, Giant plant response rating (0 to 100 scale) ([13]; 125 g ai/ha): 60; Foxtail, Giant plant response rating (0 to 100 scale) ([13]; 500 g ai/ha): 90; Kochia plant response rating (0 to 100 scale) (kochia (Kochia scoparia) [14]; 125 g ai/ha): 0; Kochia plant response rating (0 to 100 scale) (kochia (Kochia scoparia) [14]; 500 g ai/ha): 0; Pigweed plant response rating (0 to 100 scale) ([15]; 125 g ai/ha): 0; Pigweed plant response rating (0 to 100 scale) ([15]; 500 g ai/ha): 0; Barnyardgrass plant response rating (0 to 100 scale) ([16]; 125 g ai/ha): 20; Barnyardgrass plant response rating (0 to 100 scale) ([16]; 500 g ai/ha): 90; Ryegrass, Italian plant response rating (0 to 100 scale) ([17]; 125 g ai/ha): 0; Ryegrass, Italian plant response rating (0 to 100 scale) ([17]; 500 g ai/ha): 0; Ragweed plant response rating (0 to 100 scale) ([18]; 125 g ai/ha): 0; Ragweed plant response rating (0 to 100 scale) ([18]; 500 g ai/ha): 0
Cc1ccc(C2Cn3cnnc3C2C(=O)Nc2ccccc2F)cc1 (stereo not drawn) [Compound 13] | 60 | 80 | 40 | 40 | 0 | 30 | 0 | 0 | 20 | 40 | 50 | 90 | 0 | 0 | 0 | 0 | 0 | 20 | 0 | 30 | Plant response rating, Flood, Rice (rice (Oryza sativa); 250 g ai/ha): 20; Plant response rating, Flood, Ducksalad ([10]; 250 g ai/ha): 45; Plant response rating, Flood, Sedge, Umbrella ([11]; 250 g ai/ha): 0; Plant response rating, Flood, Barnyardgrass ([12]; 250 g ai/ha): 40; Foxtail, Giant plant response rating (0 to 100 scale) ([13]; 125 g ai/ha): 70; Foxtail, Giant plant response rating (0 to 100 scale) ([13]; 500 g ai/ha): 90; Kochia plant response rating (0 to 100 scale) (kochia (Kochia scoparia) [14]; 125 g ai/ha): 70; Kochia plant response rating (0 to 100 scale) (kochia (Kochia scoparia) [14]; 500 g ai/ha): 70; Pigweed plant response rating (0 to 100 scale) ([15]; 125 g ai/ha): 0; Pigweed plant response rating (0 to 100 scale) ([15]; 500 g ai/ha): 0; Barnyardgrass plant response rating (0 to 100 scale) ([16]; 125 g ai/ha): 60; Barnyardgrass plant response rating (0 to 100 scale) ([16]; 500 g ai/ha): 70; Ryegrass, Italian plant response rating (0 to 100 scale) ([17]; 125 g ai/ha): 0; Ryegrass, Italian plant response rating (0 to 100 scale) ([17]; 500 g ai/ha): 0; Ragweed plant response rating (0 to 100 scale) ([18]; 125 g ai/ha): 0; Ragweed plant response rating (0 to 100 scale) ([18]; 500 g ai/ha): 80
CCc1ccc(C2Cn3cnnc3C2C(=O)Nc2cccc(F)c2F)cc1 (stereo not drawn) [Compound 11] | 40 | 70 | 20 | 50 | 40 | 50 | 0 | 0 | 0 | 20 | 70 | 80 | 0 | 50 | 0 | 20 | 0 | 30 | 0 | 30 | Plant response rating, Flood, Rice (rice (Oryza sativa); 250 g ai/ha): 0; Plant response rating, Flood, Ducksalad ([10]; 250 g ai/ha): 95; Plant response rating, Flood, Sedge, Umbrella ([11]; 250 g ai/ha): 70; Plant response rating, Flood, Barnyardgrass ([12]; 250 g ai/ha): 0; Foxtail, Giant plant response rating (0 to 100 scale) ([13]; 125 g ai/ha): 80; Foxtail, Giant plant response rating (0 to 100 scale) ([13]; 500 g ai/ha): 90; Kochia plant response rating (0 to 100 scale) (kochia (Kochia scoparia) [14]; 125 g ai/ha): 60; Kochia plant response rating (0 to 100 scale) (kochia (Kochia scoparia) [14]; 500 g ai/ha): 70; Pigweed plant response rating (0 to 100 scale) ([15]; 125 g ai/ha): 30; Pigweed plant response rating (0 to 100 scale) ([15]; 500 g ai/ha): 30; Barnyardgrass plant response rating (0 to 100 scale) ([16]; 125 g ai/ha): 70; Barnyardgrass plant response rating (0 to 100 scale) ([16]; 500 g ai/ha): 90; Ryegrass, Italian plant response rating (0 to 100 scale) ([17]; 125 g ai/ha): 0; Ryegrass, Italian plant response rating (0 to 100 scale) ([17]; 500 g ai/ha): 30; Ragweed plant response rating (0 to 100 scale) ([18]; 125 g ai/ha): 0; Ragweed plant response rating (0 to 100 scale) ([18]; 500 g ai/ha): 40
